Assay [1] addresses T1, SET Human Serotonin Transporter (Homo sapiens, UniProt P31645).
T1 construct: Cerep (Eurofins Discovery Services) 439
The assay is described as follows: 5-HT inhibition assay: Cerep SET Human Serotonin Transporter Binding (Antagonist Radioligand) Assay. Conditions: test compound 10 μM, ligand [3H]imipramine 2 nM, 60 min at RT. The procedure: The 5-HT inhibition assay was performed according to the Cerep SET Human Serotonin Transporter Binding (Antagonist Radioligand) Assay, such as the assay described in www.eurofinsdiscoveryservices.com/catalogmanagement/viewitem//439, accessed Jul. 22, 2019. In some experiments, the assay information is as shown below:
Ligand concentration: 2 nM; Non specific: imipramine (10 μM);
Incubation: 60 min at RT;
Control inhibitor: imipramine; and Test compound concentration: 10 μM. Exemplary results are presented as 5-HT % inhibition at 10 μM of compound for compounds of the disclosure in Table 1 and for comparator compounds in Table 2.

Another assay addresses T2, CDK7: cyclin H and MNAT1 (Homo sapiens, UniProt P50613).
T2 construct: purchased Invitrogen
Put plainly: Invitrogen CDK7 assay (kinase inhibition). Conditions: co-factors cyclin H and MNAT1, read-out: IC50 against CDK7. The assay is classed as biochemical. As to the method:
Compounds were assayed using Invitrogen CDK7 assay against a variety of kinases. Exemplary results are presented as IC50 values for compounds of the disclosure in Table 1 and for comparator compounds in Table 2. In Tables 1 and 2, “A” represents an IC50 value of less than 100 nM, “B” represents an IC50 value of greater than or equal to 100 nM and less than 1 μM, and “C” represents an IC50 value of greater than or equal to 1 μM. The co-factors used for each kinase in the assays were as follows: CDK7: cyclin H and MNAT1; CDK2: cyclin A; CDK9: cyclin T1.

The mark [2] stands for this setting: Table 1, compounds of the disclosure.

Where two headings read alike, the source gives them in different places.

T2 sequence (P50613 whole entry): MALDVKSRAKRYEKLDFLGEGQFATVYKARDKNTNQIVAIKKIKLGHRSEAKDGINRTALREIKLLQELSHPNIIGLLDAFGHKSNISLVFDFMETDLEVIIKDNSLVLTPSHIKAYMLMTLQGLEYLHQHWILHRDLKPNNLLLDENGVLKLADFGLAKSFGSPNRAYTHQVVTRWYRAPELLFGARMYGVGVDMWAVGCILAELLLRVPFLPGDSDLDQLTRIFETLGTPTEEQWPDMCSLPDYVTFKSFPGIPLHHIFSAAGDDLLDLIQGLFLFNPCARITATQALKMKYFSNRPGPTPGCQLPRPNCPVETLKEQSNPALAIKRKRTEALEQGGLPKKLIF
T2 sequence (P51946 whole entry partner): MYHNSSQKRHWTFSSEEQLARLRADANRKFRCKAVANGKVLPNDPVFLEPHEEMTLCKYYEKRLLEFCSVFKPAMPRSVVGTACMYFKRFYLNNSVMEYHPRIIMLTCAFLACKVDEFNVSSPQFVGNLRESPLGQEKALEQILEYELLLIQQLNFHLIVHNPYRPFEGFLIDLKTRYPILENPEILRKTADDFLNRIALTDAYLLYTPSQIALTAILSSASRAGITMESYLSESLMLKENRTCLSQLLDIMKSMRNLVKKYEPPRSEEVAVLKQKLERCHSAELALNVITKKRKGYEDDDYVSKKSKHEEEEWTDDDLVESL
T2 sequence (P51948 whole entry partner): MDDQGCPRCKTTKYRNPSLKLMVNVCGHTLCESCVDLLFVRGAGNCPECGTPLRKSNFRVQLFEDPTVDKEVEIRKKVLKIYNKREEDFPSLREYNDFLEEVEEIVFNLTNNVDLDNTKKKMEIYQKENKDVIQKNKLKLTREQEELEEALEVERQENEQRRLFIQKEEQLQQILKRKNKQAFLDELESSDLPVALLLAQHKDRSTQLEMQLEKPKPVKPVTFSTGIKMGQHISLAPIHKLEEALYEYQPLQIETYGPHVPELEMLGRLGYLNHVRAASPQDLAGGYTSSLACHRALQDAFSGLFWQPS
T1 sequence (P31645 whole entry): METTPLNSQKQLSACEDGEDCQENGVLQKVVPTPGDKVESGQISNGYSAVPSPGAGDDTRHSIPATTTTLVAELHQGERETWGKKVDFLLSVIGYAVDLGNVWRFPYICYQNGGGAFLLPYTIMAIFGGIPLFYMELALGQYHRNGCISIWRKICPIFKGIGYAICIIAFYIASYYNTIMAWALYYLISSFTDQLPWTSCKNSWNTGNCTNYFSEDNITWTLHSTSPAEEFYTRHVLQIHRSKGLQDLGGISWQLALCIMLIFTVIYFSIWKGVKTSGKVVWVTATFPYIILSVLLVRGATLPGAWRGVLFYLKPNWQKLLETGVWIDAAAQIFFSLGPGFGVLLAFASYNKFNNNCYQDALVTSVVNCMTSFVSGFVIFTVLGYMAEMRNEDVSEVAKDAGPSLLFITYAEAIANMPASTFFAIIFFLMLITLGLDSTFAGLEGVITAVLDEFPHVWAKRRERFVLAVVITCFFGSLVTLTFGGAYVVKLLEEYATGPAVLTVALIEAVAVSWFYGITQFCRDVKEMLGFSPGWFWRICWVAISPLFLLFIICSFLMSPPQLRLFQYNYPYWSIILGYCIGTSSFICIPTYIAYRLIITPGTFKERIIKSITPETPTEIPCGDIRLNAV

As for `C=CC(=O)Nc1cccc(C(=O)Nc2ccc(Nc3n[nH]c4c3CN(C(=O)N[C@H](CN(C)C)c3ccccc3)C4(C)C)cc2)c1` [Compound C-1], 10 µM produced 98.3% inhibition in assay [1] (Table 2, comparator compounds). In addition, the IC50 (usually the concentration at which inhibition is half-maximal) at CDK7: cyclin H and MNAT1 (Table 2, comparator compounds) was under 100 nM.

In the case of `C=CC(=O)Nc1ccc(C(=O)Nc2n[nH]c3c2CN(C(=O)N[C@H](CN(C)C)c2ccccc2)C32CC2)cc1` [Compound C-2], in assay [1] (Table 2, comparator compounds), the inhibition – broadly, the relative decrease from the control value, in per cent – at 10 µM was 95.3%. The IC50 on CDK7: cyclin H and MNAT1 (Table 2, comparator compounds) is under 100 nM.

`C=CC(=O)Nc1cccc(Nc2n[nH]c3c2CN(C(=O)N[C@H](CN(C)C)c2ccccc2)C3(C)C)c1` [Compound C-3] gave an inhibition at 10 µM in assay [1] (Table 2, comparator compounds) of 98.2%. The IC50 at CDK7: cyclin H and MNAT1 (Table 2, comparator compounds) was under 100 nM.

Compound `C=CC(=O)Nc1ccc(C(=O)N2CCC(Nc3n[nH]c4c3CN(C(=O)N[C@H](CN(C)C)c3ccccc3)C4(C)C)CC2)cc1` [Compound C-4] came in with an inhibition at 10 µM in assay [1] (Table 2, comparator compounds) of 96.4%. In addition, at CDK7: cyclin H and MNAT1 (Table 2, comparator compounds), the IC50 was under 100 nM.

Turning to `C=CC(=O)N1CCC[C@H](C(=O)Nc2n[nH]c3c2CN(C(=O)N[C@H](CN(C)C)c2ccccc2)C3(C)C)C1` [Compound C-5], the inhibition at 10 µM in assay [1] (Table 2, comparator compounds) came out at 94.3%. Besides, the IC50 on CDK7: cyclin H and MNAT1 (Table 2, comparator compounds) is under 100 nM.

The compound `C=CC(=O)Nc1ccc(C(=O)Nc2cccc(C(=O)Nc3n[nH]c4c3CN(C(=O)N[C@H](CN(C)C)c3ccccc3)C4(C)C)c2)cc1` [Compound C-6] yielded an inhibition at 10 µM in assay [1] (Table 2, comparator compounds) of 99.6%. The IC50 at CDK7: cyclin H and MNAT1 (Table 2, comparator compounds) is under 100 nM.

In turn, `C=CC(=O)Nc1ccc(C(=O)Nc2n[nH]c3c2CN(C(=O)N[C@H](CN(C)C)c2ccccc2)[C@@H]3C(C)C)cc1` [Compound C-7] gave an inhibition at 10 µM in assay [1] (Table 2, comparator compounds) of 74.5%. Besides, the IC50 on CDK7: cyclin H and MNAT1 (Table 2, comparator compounds) is under 100 nM.

On to `C=CC(=O)Nc1ccc(C(=O)Nc2cccc(Nc3n[nH]c4c3CN(C(=O)N[C@H](CN(C)C)c3ccccc3)C4(C)C)c2)cc1` [Compound C-8], for which the inhibition at 10 µM in assay [1] (Table 2, comparator compounds) amounted to 98%. For the same compound, on CDK7: cyclin H and MNAT1 (Table 2, comparator compounds), the IC50 is under 100 nM.

In assay [1] (Table 2, comparator compounds), `C=CC(=O)Nc1ccc(C(=O)Nc2n[nH]c3c2CN(C(=O)N[C@H](CN(C)C)c2ccccc2)C3(C)C)nc1` [Compound C-10] displayed an inhibition at 10 µM of 98.3%. Further, the half-inhibitory concentration (IC50) at CDK7: cyclin H and MNAT1 (Table 2, comparator compounds) is under 100 nM.

With `C=CC(=O)Nc1ccc(C(=O)Nc2nn(C)c3c2CN(C(=O)N[C@H](CN(C)C)c2ccccc2)C3(C)C)cc1` [Compound I-1, (S)-3-(4-acrylamidobenzamido)-N-(2-(dimethylamino)-1-phenylethyl)-1,6,6-trimethyl-4,6-dihydropyrrolo[3,4-c]pyrazole-5(1H)-carboxamide], the inhibition at 10 µM in assay [1] (Table 1) was found to be 26.8%. Further, at CDK7: cyclin H and MNAT1 (setting [2]), the 50% inhibitory concentration (IC50) is under 100 nM.

As to `C=CC(=O)Nc1ccc(C(=O)Nc2nn(C(F)F)c3c2CN(C(=O)N[C@H](CN(C)C)c2ccccc2)C3(C)C)cc1` [Compound I-5, (S)-3-(4-acrylamidobenzamido)-1-(difluoromethyl)-N-(2-(dimethylamino)-1-phenylethyl)-6,6-dimethyl-4,6-dihydropyrrolo[3,4-c]pyrazole-5(1H)-carboxamide], the inhibition at 10 µM in assay [1] (Table 1) was 81.4%. Also, the concentration for half-maximal inhibition (IC50) on CDK7: cyclin H and MNAT1 (setting [2]) is under 100 nM.

`C=CC(=O)Nc1ccc(C(=O)Nc2nn(C)c3c2CN(C(=O)N[C@H](CN(C)C)c2ccccc2)C3(C)C)nc1` [Compound I-8, (S)-3-(5-acrylamidopicolinamido)-N-(2-(dimethylamino)-1-phenylethyl)-1,6,6-trimethyl-4,6-dihydropyrrolo[3,4-c]pyrazole-5(1H)-carboxamide] returned an inhibition at 10 µM in assay [1] (Table 1) of 50.6%. Further, the IC50 at CDK7: cyclin H and MNAT1 (setting [2]) lay within 100 to 1000 nM.

In assay [1] (Table 1), `C=CC(=O)Nc1ccc(C(=O)Nc2nn(C(F)F)c3c2CN(C(=O)N[C@H](CN(C)C)c2ccccc2)C3(C)C)nc1` [Compound I-33, (S)-3-(5-acrylamidopicolinamido)-1-(difluoromethyl)-N-(2-(dimethylamino)-1-phenylethyl)-6,6-dimethyl-4,6-dihydropyrrolo[3,4-c]pyrazole-5(1H)-carboxamide] returned an inhibition at 10 µM of 88.8%. The IC50 at CDK7: cyclin H and MNAT1 (setting [2]) was under 100 nM.

In assay [1] (Table 2, comparator compounds), `C=CC(=O)Nc1ccc(C(=O)Nc2n[nH]c3c2CN(C(=O)N[C@H](CN(C)C)c2ccccc2)C3(C)C)cc1C(F)(F)F` [II-2] yielded an inhibition at 10 µM of 98.1%. Moreover, the 50% inhibitory concentration (IC50) on CDK7: cyclin H and MNAT1 (Table 2, comparator compounds) was under 100 nM.
